Source: patent US10150764B2, “Substituted benzene compounds” (Epizyme, Inc., priority 2013, dated 2018)
pIC50: −log10 of the molar value.

Assays:
[1] = target: wild-type EZH2 (PRC2 enzyme) (Homo sapiens (Human), UniProt Q15910); assay: PRC2 enzyme assay on peptide substrate, wild-type EZH2 (H3K27me0 peptide, 3H-SAM Flashplate); assay type: biochemical; settings: wild-type PRC2 4 nM, read-out: WT EZH2 IC50
Protocol: (§1) Human PRC2 enzymes were purified as 4-component enzyme complexes co-expressed in Spodoptera frugiperda (sf9) cells using a baculovirus expression system. […] The EED subunit contained an N-terminal FLAG tag that was used to purify the entire 4-component complex from sf9 cell lysates.
(§2) The assays were all performed in a buffer consisting of 20 mM bicine (pH=7.6), 0.5 mM DTT, 0.005% BSG and 0.002% Tween20, prepared on the day of use. […] DMSO (1 μL) was added to columns 11, 12, 23, 24, rows A-H for the maximum signal control, and SAH, a known product and inhibitor of PRC2 (1 μL) was added to columns 11, 12, 23, 24, rows I-P for the minimum signal control. A cocktail (40 μL) containing the wild-type PRC2 enzyme and H3K27me0 peptide or any of the Y641 mutant enzymes and H3K27me2 peptide was added by Multidrop Combi (Thermo). The compounds were allowed to incubate with PRC2 for 30 min at 25° C., then a cocktail (10 μL) containing a mixture of non-radioactive and ^3H-SAM was added to initiate the reaction (final volume=51 μL). […] The assays were stopped by the addition of non-radioactive SAM (10 μL) to a final concentration of 600 μM, which dilutes the ^3H-SAM to a level where its incorporation into the peptide substrate is no longer detectable. 50 of the reaction in the 384-well polypropylene plate was then transferred to a 384-well Flashplate and the biotinylated peptides were allowed to bind to the streptavidin surface for at least 1 h before being washed three times with 0.1% Tween20 in a Biotek ELx405 plate washer. The plates were then read in a PerkinElmer TopCount platereader to measure the quantity of ^3H-labeled peptide bound to the Flashplate surface, measured as disintegrations per minute (dpm) or alternatively, referred to as counts per minute (cpm).

[2] = target: EZH2 Y641F mutant (PRC2 enzyme) (Homo sapiens (Human), UniProt Q15910, Y641F); assay: PRC2 enzyme assay on peptide substrate, EZH2 Y641F mutant (H3K27me2 peptide, 3H-SAM Flashplate); assay type: biochemical; settings: Y641F mutant PRC2 4 nM
Protocol: as §1, §2

[3] = tested on: H3K27me3 in WSU-DLCL2 cells; assay: WSU-DLCL2 methylation assay (H3K27me3 ELISA); assay type: cell-based, human; settings: H3K27me3 normalised to total H3
Description: WSU-DLCL2 Methylation Assay
WSU-DLCL2 suspension cells were purchased from DSMZ (German Collection of Microorganisms and Cell Cultures, Braunschweig, Germany). RPMI/Glutamax Medium, Penicillin-Streptomycin, Heat Inactivated Fetal Bovine Serum, and D-PBS were purchased from Life Technologies, Grand Island, N.Y., USA. Extraction Buffer and Neutralization Buffer (5×) were purchased from Active Motif, Carlsbad, Calif., USA. Rabbit anti-Histone H3 antibody was purchased from Abcam, Cambridge, Mass., USA. Rabbit anti-H3K27me3 and HRP-conjugated anti-rabbit-IgG were purchased from Cell Signaling Technology, Danvers, Mass., USA. TMB “Super Sensitive” substrate was sourced from BioFX Laboratories, Owings Mills, Md., USA. IgG-free Bovine Serum Albumin was purchased from Jackson ImmunoResearch, West Grove, Pa., USA. PBS with Tween (10×PBST) was purchased from KPL, Gaithersburg, Md., USA. Sulfuric Acid was purchased from Ricca Chemical, Arlington, Tex., USA. Immulon ELISA plates were purchased from Thermo, Rochester, N.Y., USA. V-bottom cell culture plates were purchased from Corning Inc., Corning, N.Y., USA. V-bottom polypropylene plates were purchased from Greiner Bio-One, Monroe, N.C., USA.
WSU-DLCL2 suspension cells were maintained in growth medium (RPMI 1640 supplemented with 10% v/v heat inactivated fetal bovine serum and 100 units/mL penicillin-streptomycin) and cultured at 37° C. under 5% CO2. Under assay conditions, cells were incubated in Assay Medium (RPMI 1640 supplemented with 20% v/v heat inactivated fetal bovine serum and 100 units/mL penicillin-streptomycin) at 37° C. under 5% CO2 on a plate shaker.
WSU-DLCL2 cells were seeded in assay medium at a concentration of 50,000 cells per mL to a 96-well V-bottom cell culture plate with 200 μL per well. […] Plates were incubated on a titer-plate shaker at 37° C., 5% CO2 for 96 hours. After four days of incubation, plates were spun at 241×g for five minutes and medium was aspirated gently from each well of cell plate without disturbing cell pellet. Pellet was resuspended in: 200 μL DPBS and plates were spun again at 241×g for five minutes. The supernatant was aspirated and cold (4° C.) Extraction buffer (100 μL) was added per well. Plates were incubated at 4° C. on orbital shaker for two hours. Plates were spun at 3427×g×10 minutes. Supernatant (80 μL per well) was transferred to its respective well in 96 well V-bottom polypropylene plate. Neutralization Buffer 5× (20 μL per well) was added to V-bottom polypropylene plate containing supernatant. V-bottom polypropylene plates containing crude histone preparation (CHP) were incubated on orbital shaker×five minutes. Crude Histone Preparations were added (2 μL per well) to each respective well into duplicate 96 well ELISA plates containing 100 μL Coating Buffer (1×PBS+BSA 0.05% w/v). Plates were sealed and incubated overnight at 4° C. The following day, plates were washed three times with 300 μL per well 1×PBST. […] For H3K27me3 detection, 100 μL of HRP conjugated anti-rabbit IgG antibody diluted to 1:4000 in ELISA diluent was added per well. Plates were incubated at room temperature for 90 minutes. […] TMB substrate 100 μL was added per well. Histone H3 plates were incubated for five minutes at room temperature. H3K27me3 plates were incubated for 10 minutes at room temperature. The reaction was stopped with sulfuric acid 1N (100 μL per well). Absorbance for each plate was read at 450 nm.
Each plate included eight control wells DMSO only treatment (Minimum Inhibition) as well as eight control wells for maximum inhibition (Background wells).
The average of the ratio values for each control type was calculated and used to determine the percent inhibition for each test well in the plate. Test compound was serially diluted three-fold in DMSO for a total of ten test concentrations, beginning at 25 μM.

[4] = Homo sapiens, WSUDLCL2, 96 hours incubation

wild-type EZH2 (PRC2 enzyme), sequence (Q15910 whole entry): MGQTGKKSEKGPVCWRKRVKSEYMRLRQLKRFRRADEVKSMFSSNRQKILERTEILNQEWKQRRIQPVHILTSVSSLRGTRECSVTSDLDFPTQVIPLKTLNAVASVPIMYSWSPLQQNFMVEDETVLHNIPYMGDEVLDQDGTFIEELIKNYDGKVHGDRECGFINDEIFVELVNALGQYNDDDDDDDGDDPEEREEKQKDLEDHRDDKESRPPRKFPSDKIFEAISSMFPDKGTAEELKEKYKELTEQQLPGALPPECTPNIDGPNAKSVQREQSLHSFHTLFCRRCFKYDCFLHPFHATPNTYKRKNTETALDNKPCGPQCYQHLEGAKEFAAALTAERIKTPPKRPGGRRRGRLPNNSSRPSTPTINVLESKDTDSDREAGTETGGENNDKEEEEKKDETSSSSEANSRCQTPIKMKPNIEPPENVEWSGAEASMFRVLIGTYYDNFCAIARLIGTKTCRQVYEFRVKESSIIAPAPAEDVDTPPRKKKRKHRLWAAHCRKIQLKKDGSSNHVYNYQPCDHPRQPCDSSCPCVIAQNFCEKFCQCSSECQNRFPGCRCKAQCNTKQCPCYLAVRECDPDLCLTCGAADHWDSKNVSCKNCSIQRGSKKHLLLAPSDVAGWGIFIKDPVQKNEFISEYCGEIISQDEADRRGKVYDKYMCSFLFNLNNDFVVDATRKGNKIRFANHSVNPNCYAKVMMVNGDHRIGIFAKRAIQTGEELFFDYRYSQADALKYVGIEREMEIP
wild-type EZH2 (PRC2 enzyme), sequence (O75530 whole entry partner): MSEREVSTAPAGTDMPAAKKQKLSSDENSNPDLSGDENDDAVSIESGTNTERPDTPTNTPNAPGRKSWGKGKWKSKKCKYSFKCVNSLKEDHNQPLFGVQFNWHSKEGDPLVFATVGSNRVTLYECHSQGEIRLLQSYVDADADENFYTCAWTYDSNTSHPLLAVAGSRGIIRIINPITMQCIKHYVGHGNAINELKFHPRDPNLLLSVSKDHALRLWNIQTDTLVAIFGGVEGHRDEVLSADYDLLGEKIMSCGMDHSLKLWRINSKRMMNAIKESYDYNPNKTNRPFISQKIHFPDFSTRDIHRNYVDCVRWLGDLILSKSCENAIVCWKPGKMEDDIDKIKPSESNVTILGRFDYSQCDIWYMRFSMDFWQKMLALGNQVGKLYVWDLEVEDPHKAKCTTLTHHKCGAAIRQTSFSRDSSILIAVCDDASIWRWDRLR
wild-type EZH2 (PRC2 enzyme), sequence (Q15022 whole entry partner): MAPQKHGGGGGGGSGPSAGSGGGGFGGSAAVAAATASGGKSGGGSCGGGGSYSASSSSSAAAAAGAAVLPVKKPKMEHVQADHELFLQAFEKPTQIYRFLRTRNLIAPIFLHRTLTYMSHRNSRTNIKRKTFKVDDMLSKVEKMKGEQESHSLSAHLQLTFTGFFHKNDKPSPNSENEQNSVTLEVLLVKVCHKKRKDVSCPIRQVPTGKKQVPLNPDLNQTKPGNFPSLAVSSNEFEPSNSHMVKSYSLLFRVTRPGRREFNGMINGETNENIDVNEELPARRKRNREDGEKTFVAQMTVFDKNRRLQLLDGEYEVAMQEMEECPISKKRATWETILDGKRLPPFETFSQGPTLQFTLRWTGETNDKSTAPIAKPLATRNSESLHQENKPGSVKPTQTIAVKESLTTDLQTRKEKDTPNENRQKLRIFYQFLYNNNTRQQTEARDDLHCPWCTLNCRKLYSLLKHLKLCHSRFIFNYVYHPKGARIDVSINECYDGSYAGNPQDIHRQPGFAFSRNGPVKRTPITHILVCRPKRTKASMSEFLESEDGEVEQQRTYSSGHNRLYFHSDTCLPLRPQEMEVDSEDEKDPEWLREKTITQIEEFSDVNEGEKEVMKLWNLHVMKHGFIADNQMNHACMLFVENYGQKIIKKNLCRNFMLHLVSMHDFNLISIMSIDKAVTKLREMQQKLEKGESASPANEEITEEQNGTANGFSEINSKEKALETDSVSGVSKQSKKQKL
wild-type EZH2 (PRC2 enzyme), sequence (Q09028 whole entry partner): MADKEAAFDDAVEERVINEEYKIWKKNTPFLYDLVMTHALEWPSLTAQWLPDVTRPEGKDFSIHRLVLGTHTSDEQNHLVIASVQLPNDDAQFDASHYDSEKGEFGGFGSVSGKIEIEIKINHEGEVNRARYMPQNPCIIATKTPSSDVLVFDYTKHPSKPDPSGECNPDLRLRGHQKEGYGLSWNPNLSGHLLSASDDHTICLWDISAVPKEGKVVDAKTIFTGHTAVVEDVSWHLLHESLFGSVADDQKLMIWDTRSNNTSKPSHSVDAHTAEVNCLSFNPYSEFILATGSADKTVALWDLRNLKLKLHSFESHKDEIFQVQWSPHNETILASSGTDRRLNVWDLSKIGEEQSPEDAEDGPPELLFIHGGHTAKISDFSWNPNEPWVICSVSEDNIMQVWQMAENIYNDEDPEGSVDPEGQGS
EZH2 Y641F mutant (PRC2 enzyme), sequence (Q15910 whole entry Y641F): as the sequence (Q15910 whole entry) above, with Y641F counted along it
EZH2 Y641F mutant (PRC2 enzyme), sequence (O75530 whole entry partner): as the sequence (O75530 whole entry partner) above
EZH2 Y641F mutant (PRC2 enzyme), sequence (Q15022 whole entry partner): as the sequence (Q15022 whole entry partner) above
EZH2 Y641F mutant (PRC2 enzyme), sequence (Q09028 whole entry partner): as the sequence (Q09028 whole entry partner) above

Compound | pIC50 [1] | pIC50 [2] | pIC50 ([3]; 96 hours incubation) | pIC50 [3, 4]
5-chloro-3-(ethyl((trans)-4-((4-methoxybenzyl)(methyl)amino) cyclohexyl)amino)-2-methyl-N-((1-methyl-3-oxo-5-(piperidin-1-yl)-2,3-dihydro-1H-pyrazol-4-yl)methyl)benzamide [Compound 84] | 5.84 | 5.92 | 4.78 | –
CCN(c1cc(-c2ccc(OCCOC)cc2)cc(C(=O)NCc2c(C)[nH][nH]c2=O)c1C)[C@H]1CC[C@H](N(C)C)CC1 [Compound 30, 5-(((trans)-4-(dimethylamino)cyclohexyl)(ethyl)amino)-4′-(2-methoxyethoxy)-4-methyl-N-((5-methyl-3-oxo-2,3-dihydro-1H-pyrazol-4-yl)methyl)-[1,1′-biphenyl]-3-carboxamide] | 7.62 | 8.15 | – | 4.54
CCN(c1cc(-c2ccc(CN3CCOCC3)cc2)cc(C(=O)NCc2c(C)[nH]n(C)c2=O)c1C)C1CCOCC1 [Compound 46, N-((2,5-dimethyl-3-oxo-2,3-dihydro-1H-pyrazol-4-yl)methyl)-5-(ethyl(tetrahydro-2H-pyran-4-yl)amino)-4-methyl-4′-(morpholinomethyl)-[1,1′-biphenyl]-3-carboxamide] | – | – | – | < 4.30
CCN(c1cc(-c2ccc(N3CCNCC3)nc2)cc(C(=O)NCc2c(C)[nH]n(C)c2=O)c1C)C1CCOCC1 [Compound 47, N-((2,5-dimethyl-3-oxo-2,3-dihydro-1H-pyrazol-4-yl)methyl)-3-(ethyl(tetrahydro-2H-pyran-4-yl)amino)-2-methyl-5-(6-(piperazin-1-yl)pyridin-3-yl)benzamide] | – | – | – | < 4.30
CCN(c1cc(Cl)cc(C(=O)NCc2c(C)n(C)[nH]c2=O)c1C)[C@H]1CC[C@H](N(C)Cc2cccnc2)CC1 [Compound 67, 5-chloro-N-((1,5-dimethyl-3-oxo-2,3-dihydro-1H-pyrazol-4-yl)methyl)-3-(ethyl((trans)-4-(methyl(pyridin-3-ylmethyl)amino)cyclohexyl)amino)-2-methylbenzamide] | 6.50 | 7.22 | – | –
CCN(c1cc(Cl)cc(C(=O)NCc2c(C)n(C)[nH]c2=O)c1C)[C@H]1CC[C@H](N(C)Cc2cccc(OCCOC)c2)CC1 [Compound 69, 5-chloro-N-((1,5-dimethyl-3-oxo-2,3-dihydro-1H-pyrazol-4-yl)methyl)-3-(ethyl((trans)-4-((3-(2-methoxyethoxy)benzyl)(methyl)amino)cyclohexyl)amino)-2-methylbenzamide] | 6.87 | 7.51 | – | –
CCN(c1cc(Cl)cc(C(=O)NCc2c(OC)nn(CC)c2C)c1C)C1CCN(CCOC)CC1 [Compound 74] | 4.90 | 5.14 | – | –
CCN(c1cc(Cl)cc(C(=O)NCc2c(OC)nn(C)c2C)c1C)C1CCN(CCOC)CC1 [Compound 76, 5-chloro-3-(ethyl(1-(2-methoxyethyl)piperidin-4-yl)amino)-N-((3-methoxy-1,5-dimethyl-1H-pyrazol-4-yl)methyl)-2-methylbenzamide] | < 4.30 | < 4.30 | – | –
CCN(c1cc(Cl)cc(C(=O)NCc2c(C)n(C)[nH]c2=O)c1C)C1CCN(CCOC)CC1 [Compound 77, 5-chloro-N-((1,5-dimethyl-3-oxo-2,3-dihydro-1H-pyrazol-4-yl)methyl)-3-(ethyl(1-(2-methoxyethyl)piperidin-4-yl)amino)-2-methylbenzamide] | 4.90 | 5.33 | – | –
CCN(c1cc(Cl)cc(C(=O)NCc2c(OC)nn(C)c2C)c1C)C1CCN(CCc2cccc(OC)c2)CC1 [Compound 78, 5-chloro-3-(ethyl(1-(3-methoxyphenethyl)piperidin-4-yl)amino)-N-((3-methoxy-1,5-dimethyl-1H-pyrazol-4-yl)methyl)-2-methylbenzamide] | 4.76 | 5.37 | – | –
CCN(c1cc(Cl)cc(C(=O)NCc2c(C)n(C)[nH]c2=O)c1C)C1CCN(CCc2cccc(OC)c2)CC1 [Compound 79, 5-chloro-N-((1,5-dimethyl-3-oxo-2,3-dihydro-1H-pyrazol-4-yl)methyl)-3-(ethyl(1-(3-methoxyphenethyl)piperidin-4-yl)amino)-2-methylbenzamide] | 6.31 | 7.00 | – | –
CCN(c1cc(Cl)cc(C(=O)NCc2c(C(F)(F)F)[nH]n(C)c2=O)c1C)[C@H]1CC[C@H](N(C)C)CC1 [Compound 89, 5-chloro-3-(ethyl((trans)-4-(dimethylamino)cyclohexyl)amino)-2-methyl-N-((2-methyl-3-oxo-5-(trifluoromethyl)-2,3-dihydro-1H-pyrazol-4-yl)methyl)benzamide] | < 4.30 | < 4.30 | – | –
CCN(c1cc(Cl)cc(C(=O)NCc2c(C(F)(F)F)n(C)n(C)c2=O)c1C)[C@H]1CC[C@H](N(C)C)CC1 [Compound 90, 5-chloro-N-((1,2-dimethyl-3-oxo-5-(trifluoromethyl)-2,3-dihydro-1H-pyrazol-4-yl)methyl)-3-(ethyl((trans)-4-(dimethylamino)cyclohexyl)amino)-2-methylbenzamide] | 5.72 | 6.30 | – | –
CCN(c1cc(Cl)cc(C(=O)NCc2c(OC)nn(C)c2N2CCCCC2)c1C)[C@H]1CC[C@H](N(C)C)CC1 [Compound 92, 5-chloro-3-(ethyl[(trans)-4-(dimethylamino)cyclohexyl]amino)-N-([3-methoxy-1-methyl-5-(piperidin-1-yl)-1H-pyrazol-4-yl]methyl)-2-methylbenzamide] | < 4.30 | < 4.30 | – | –

Further lines, with some results ahead:

pIC50 [1] | pIC50 [2] | Compound | pIC50 ([3]; 96 hours incubation) | pIC50 [3, 4]
4.43 | 4.58 | CCN(c1cc(Cl)cc(C(=O)NCc2c(C)[nH]n(C)c2=O)c1C)[C@@H]1COC[C@H]1O (relative stereo) [Compound 41, 5-chloro-N-((2,5-dimethyl-3-oxo-2,3-dihydro-1H-pyrazol-4-yl)methyl)-3-(ethyl((trans)-4-hydroxytetrahydrofuran-3-yl)amino)-2-methylbenzamide] | – | < 4.30
5.72 | 6.30 | CCn1[nH]c(=O)c(CNC(=O)c2cc(Cl)cc(N(CC)[C@H]3CC[C@H](N(C)Cc4ccc(OC)cc4)CC3)c2C)c1C [Compound 71, 5-chloro-3-(ethyl((trans)-4-((4-methoxybenzyl)-(methyl)-amino)-cyclohexyl)-amino)-N-((1-ethyl-5-methyl-3-oxo-2,3-dihydro-1H-pyrazol-4-yl)methyl)-2-methylbenzamide] | – | –
< 4.30 | 5.25 | CCN(c1cc(Cl)cc(C(=O)NCc2c(OC)nn(C)c2C)c1C)[C@H]1CC[C@H](N(C)C(C)c2cccnc2)CC1 (stereo partly drawn) [Compound 72, 5-chloro-3-(ethyl((trans)-4-(methyl(1-(pyridin-3-yl)ethyl)amino)cyclohexyl)amino)-N-((3-methoxy-1,5-dimethyl-1H-pyrazol-4-yl)methyl)-2-methylbenzamide] | – | –
5.89 | 6.83 | CCN(c1cc(Cl)cc(C(=O)NCc2c(C)n(C)[nH]c2=O)c1C)[C@H]1CC[C@H](N(C)C(C)c2cccnc2)CC1 (stereo partly drawn) [Compound 73, 5-chloro-N-((1,5-dimethyl-3-oxo-2,3-dihydro-1H-pyrazol-4-yl)methyl)-3-(ethyl((trans)-4-(methyl(1-(pyridin-3-yl)ethyl)amino)cyclohexyl)amino)-2-methylbenzamide] | – | –
< 4.30 | 4.31 | CCN(c1cc(Cl)cc(C(=O)NCc2c(OC)nn(C)c2N2CCCC2)c1C)[C@H]1CC[C@H](N(C)C)CC1 [Compound 80, 5-chloro-3-(((trans)-4-(dimethylamino)cyclohexyl) (ethyl)amino)-N-((3-methoxy-1-methyl-5-(pyrrolidin-1-yl)-1H-pyrazol-4-yl)methyl)-2-methylbenzamide] | – | –
4.64 | 4.57 | CCN(c1cc(Cl)cc(C(=O)NCc2c(OC)nn(C)c2N2CCOCC2)c1C)[C@H]1CC[C@H](N(C)C)CC1 [Compound 82, 5-chloro-3-(((trans)-4-(dimethylamino)cyclohexyl) (ethyl)amino)-N-((3-methoxy-1-methyl-5-morpholino-1H-pyrazol-4-yl)methyl)-2-methylbenzamide] | – | –
4.34 | 4.74 | CCN(c1cc(Cl)cc(C(=O)NCc2c(OC)nn(C)c2N2CCCCC2)c1C)[C@H]1CC[C@H](N(C)Cc2cccc(OC)c2)CC1 [Compound 83, 5-chloro-3-(ethyl((trans)-4-((3-methoxybenzyl)(methyl)amino)cyclohexyl)amino)-N-((3-methoxy-1-methyl-5-(piperidin-1-yl)-1H-pyrazol-4-yl)methyl)-2-methylbenzamide] | – | –
6.47 | 6.60 | CCN(c1cc(Cl)cc(C(=O)NCc2c(C)n(C)n(C)c2=O)c1C)[C@H]1CC[C@H](N(C)C)CC1 [Compound 87, 5-chloro-3-(ethyl((trans)-4-(dimethylamino)cyclohexyl)amino)-2-methyl-N-((1,2,5-trimethyl-3-oxo-2,3-dihydro-1H-pyrazol-4-yl)methyl)benzamide] | – | –
< 4.30 | 4.33 | CCN(c1cc(Cl)cc(C(=O)NCc2c(C(F)(F)F)nn(C)c2OC)c1C)[C@H]1CC[C@H](N(C)C)CC1 [Compound 88, 5-chloro-3-(ethyl((trans)-4-(dimethylamino)cyclohexyl)amino)-N-((5-methoxy-1-methyl-3-(trifluoromethyl)-1H-pyrazol-4-yl)methyl)-2-methylbenzamide] | – | –
< 4.30 | < 4.30 | CCN(c1cc(Cl)cc(C(=O)NCc2c(N3CCCCC3)nn(C)c2OC)c1C)[C@H]1CC[C@H](N(C)C)CC1 [Compound 94, 5-chloro-3-(((trans)-4-(dimethylamino)cyclohexyl)(ethyl)amino)-N-((5-methoxy-1-methyl-3-(piperidin-1-yl)-1H-pyrazol-4-yl)methyl)-2-methylbenzamide] | – | –
< 4.30 | 4.75 | CCN(c1cc(Cl)cc(C(=O)NCc2c(OC)nn(C)c2OC)c1C)[C@H]1CC[C@H](N(C)C)CC1 [Compound 95, 5-chloro-N-((3,5-dimethoxy-1-methyl-1H-pyrazol-4-yl)methyl)-3-(((trans)-4-(dimethylamino)cyclohexyl)(ethyl)amino)-2-methylbenzamide] | – | –
